Literature values as cited in patent US20140045806A1 (priority 2012, published 2014).

System: vaginal nerve fibers
Conditions: Pessina, Hoyt et al. 2006; cited from earlier work

Row | SMILES | Number and size of the nerve terminals in the lamina propria
1 | CC(=O)[C@H]1CC[C@H]2[C@@H]3CCC4=CC(=O)CC[C@]4(C)[C@H]3CC[C@]12C [progesterone] | no effect
2 | C[C@]12CC[C@H]3[C@@H](CCC4=CC(=O)CC[C@@]43C)[C@@H]1CC[C@@H]2O [testosterone] | increases the number and size of the nerve terminals
